Consider 32 molecules from ChEMBL document CHEMBL6121014, “Novel α-mangostin derivatives as promising antiviral agents: Isolation, synthesis, and evaluation against chikungunya virus” (Eur J Med Chem, 2025).

As usually defined, the IC50 is the midpoint of a concentration-inhibition curve. Broadly, the CC50 is the concentration that lowers cell viability or growth by half.

Activity calls are given as the source filed them. No cut-off for these calls is given here.

One series concerns Vero. Briefly: (§1) Cytotoxicity against green monkey Vero cells assessed as reduction in cell viability at 24 to 48 hrs by MTT assay. Type of series: toxicity, cell-based. Also noted: Activity: concentration or dose not given beside the values. The settings on record: chlorocebus sabaeus, vero; time 24-48 hrs. (Formazan colour is commonly taken as a measure of viable cells.)
Series [1] relates to Chikungunya virus. In words: Antiviral activity against CHIKV infected in green monkey Vero cells assessed as reduction in viral titer pretreated with compound for 24 hrs followed by viral infection by Foci forming unit assay. Type of series: functional, organism-based.
The nature of series [2]: as §1. The class given is toxicity, cell-based. Also noted: Activity: concentration or dose not given beside the values. The settings on record: chlorocebus sabaeus, Vero cells; time 24-48 hrs.
The nature of series [3]: Selectivity ratio of IC50 for antiviral activity against CHIKV infected in green monkey Vero cells assessed as reduction in viral titer pretreated the cells with viral infection for 1 hr followed by compound addition and measured after 24 hrs by Foci forming unit assay to CC50 for cytotoxicity against green monkey Vero cells. The class given is toxicity, cell-based.
Series [4] deals with Chikungunya virus. In words: Antiviral activity against CHIKV infected in green monkey Vero cells assessed as reduction in viral titer pretreated the cells with viral infection for 1 hr followed by compound addition and measured after 24 hrs by Foci forming unit assay. Type of series: functional, organism-based.
The subject of series [5] is Chikungunya virus. In words: Antiviral activity against CHIKV infected in green monkey Vero cells assessed as reduction in viral titer at 3.125 uM pretreated the cells with viral infection for 1 hr followed by compound addition and measured after 24 hrs by Foci forming unit assay (reference value: 8.55 log10FFU/ml). The class given is functional.
Series [6] deals with Chikungunya virus. Briefly: Antiviral activity against CHIKV infected in green monkey Vero cells assessed as inhibition of viral post entry by entry bypass assay. The class given is functional, organism-based.
For series [7], the system named is Chikungunya virus. Briefly: Antiviral activity against CHIKV infected in green monkey Vero cells assessed as inhibition of infectious virus preincubated the cells for 45 mins followed by compound addition and measured after 1 to 6 hrs post infection by time of addition assay. The settings on record: time 1-6 hrs. The class given is functional, organism-based.
Series [8] concerns Chikungunya virus. Briefly: Antiviral activity against CHIKV infected in green monkey Vero cells assessed as reduction in viral titer at 6.25 uM pretreated with compound for 24 hrs followed by viral infection by Foci forming unit assay (reference value: 8.55 log10FFU/ml). The class given is functional.
The test system of series [9] is Chikungunya virus. Briefly: Antiviral activity against CHIKV infected in green monkey Vero cells assessed as inhibition of viral entry by entry assay. Type of series: functional, organism-based.
For series [10], the system named is Chikungunya virus. In words: Antiviral activity against CHIKV infected in green monkey Vero cells assessed as reduction in viral titer at 50 uM pretreated with compound for 24 hrs followed by viral infection by Foci forming unit assay (reference value: 8.81 log10FFU/ml). The class given is functional.
Series [11] concerns Chikungunya virus. Briefly: Antiviral activity against CHIKV infected in green monkey Vero cells assessed as reduction in viral titer at 6.25 uM pretreated with compound for 24 hrs followed by viral infection by Foci forming unit assay (reference value: 8.81 log10FFU/ml). Type of series: functional, organism-based.
Series [12] concerns Chikungunya virus. In words: Antiviral activity against CHIKV infected in green monkey Vero cells assessed as reduction in viral titer at 12.5 to 50 uM pretreated the cells with viral infection for 1 hr followed by compound addition and measured after 24 hrs by Foci forming unit assay (reference value: 8.55 log10FFU/ml). The settings on record: dose 12.5-50 µM. The class given is functional.

With `COc1c(OCC#Cc2ccc(C#N)cc2)cc2oc3cc4c(c(O)c3c(=O)c2c1CC=C(C)C)C=CC(C)(C)O4`, in the series with Vero, the Activity is listed as above 90%.
As to `C=C(C)C1Cc2c(cc3oc4cc(O)c(OC)c(CC=C(C)C)c4c(=O)c3c2O)O1` (configuration not stated) [MANGOSTENONE F], the IC50 in the series on Chikungunya virus [1] worked out at 21.8 µM; with Chikungunya virus [4] it was 1.96 µM. Further, the CC50 in [2] turned out to be 12.8 µM. Besides, the Activity in the series with Vero was above 90%; with Chikungunya virus [5], 7.42 log10FFU/ml. Moreover, the selectivity ratio at 24 h in series [3] was found to be 6.54.
Take `COc1c(OCc2cn(-c3ccccc3)nn2)cc2oc3cc4c(c(O)c3c(=O)c2c1CC=C(C)C)C=CC(C)(C)O4`: the Activity with Vero was above 90%.
Still for that read-out and setting: in the case of `COc1c(OCc2cn(-c3ccc(C)cc3C)nn2)cc2oc3cc4c(c(O)c3c(=O)c2c1CC=C(C)C)C=CC(C)(C)O4` it was above 90%.
Take `COc1c(OCc2cn(-c3c(C)cccc3C)nn2)cc2oc3cc4c(c(O)c3c(=O)c2c1CC=C(C)C)C=CC(C)(C)O4`: in the series on Chikungunya virus [6], the outcome was Active. Besides, in the series with Vero, the Activity is reported as above 90%.
Regarding `COc1c(OCC(=O)N2CCN(S(=O)(=O)c3ccc(C#N)cc3)CC2)cc2oc3cc4c(c(O)c3c(=O)c2c1CC=C(C)C)C=CC(C)(C)O4`, the CC50 in series [2] turned out to be 223 µM. For the same molecule, the Activity in the series with Vero is above 90%; with Chikungunya virus [5] it was 7.44 log10FFU/ml. Also, the selectivity ratio at 24 h in series [3] was 119. For the same molecule, the IC50 in the series on Chikungunya virus [4] was found to be 1.88 µM.
`COc1c(OCC#Cc2ccccc2Br)cc2oc3cc4c(c(O)c3c(=O)c2c1CC=C(C)C)C=CC(C)(C)O4`: the Activity with Vero is listed as above 90%.
As for `COc1c(OCc2cn(-c3ccc(C)c(C)c3)nn2)cc2oc3cc4c(c(O)c3c(=O)c2c1CC=C(C)C)C=CC(C)(C)O4`, in the series with Vero, the Activity was above 90%.
Still for that read-out and setting: with `C#CCOc1cc2oc3cc4c(c(O)c3c(=O)c2c(CC=C(C)C)c1OC)C=CC(C)(C)O4` the figure was above 90%.
Take `COc1c(OCC#Cc2ccc(O)cc2)cc2oc3cc4c(c(O)c3c(=O)c2c1CC=C(C)C)C=CC(C)(C)O4`: the result with Chikungunya virus [7] was Active. Further, the Activity in the series with Vero is recorded as above 90%.
On to `COc1c(OCc2cn(-c3cc(C)ccc3C)nn2)cc2oc3cc4c(c(O)c3c(=O)c2c1CC=C(C)C)C=CC(C)(C)O4`, for which the Activity in the series with Vero is listed as above 90%.
For the molecule `O=c1c2cc(O)c(O)cc2oc2cc(O)cc(O)c12`, the Activity with Vero was above 90%.
Turning to `CC(C)=CCc1c(O)c(CC=C(C)C)c2oc3c(O)ccc(O)c3c(=O)c2c1O` [GARTANIN], the CC50 in series [2] stood at 7.71 µM. Also, the Activity with Vero is recorded as above 90%; with Chikungunya virus [8] it was 7.42 log10FFU/ml. The selectivity ratio at 24 h in series [3] came out at 2.07. The IC50 in the series on Chikungunya virus [4] stood at 3.73 µM.
Take `COc1c(OCC#Cc2cccc(C(F)(F)F)c2)cc2oc3cc4c(c(O)c3c(=O)c2c1CC=C(C)C)C=CC(C)(C)O4`: the Activity with Vero is above 90%.
On the same count and under the same terms, with `COc1c(OCC(=O)N2CCN(S(=O)(=O)c3ccc(C)cc3)CC2)cc2oc3cc4c(c(O)c3c(=O)c2c1CC=C(C)C)C=CC(C)(C)O4` the figure was above 90%; with `O=c1cc(-c2ccc(O)c(O)c2)oc2c(O)c(O)cc(O)c12` [HYPOLAETIN], above 90%.
Consider `CC(C)=CCc1c(O)cc2oc3cc(O)c4c(c3c(=O)c2c1O)CCC(C)(C)O4`, for which the CC50 in [2] was found to be 11.4 µM. In addition, the Activity in the series on Vero is reported as above 90%; with Chikungunya virus [8], 7.43 log10FFU/ml. In series [3], the selectivity ratio at 24 h was found to be 2.79. Besides, in the series on Chikungunya virus [4], the IC50 was 4.1 µM.
Take `COc1c(OCc2cn(-c3ccc(Br)cc3)nn2)cc2oc3cc4c(c(O)c3c(=O)c2c1CC=C(C)C)C=CC(C)(C)O4`: the Activity with Vero is reported as below 90%.
For the molecule `COc1c(OCc2cn(-c3cccc(C(F)(F)F)c3)nn2)cc2oc3cc4c(c(O)c3c(=O)c2c1CC=C(C)C)C=CC(C)(C)O4`, the Activity with Vero is reported as above 90%.
Same read-out and setting: with `COc1c(OCc2cn(-c3c(C)cc(C)cc3C)nn2)cc2oc3cc4c(c(O)c3c(=O)c2c1CC=C(C)C)C=CC(C)(C)O4` the figure was below 90%.
As to `COc1c(OCC#Cc2ccc(C(C)=O)cc2)cc2oc3cc4c(c(O)c3c(=O)c2c1CC=C(C)C)C=CC(C)(C)O4`, the result in the series with Chikungunya virus [9] was Active. Moreover, the Activity result in the series with Chikungunya virus [6] is on record as “Active; Highest Inhibitory Effect Observed”; in the series on Vero, above 90%. Also, the CC50 in series [2] stood at 194 µM. For the same molecule, the selectivity ratio at 24 h in series [3] was 637. For the same molecule, the IC50 in the series with Chikungunya virus [4] was found to be 0.304 µM.
Consider `COc1c(OCC(=O)N2CCN(S(=O)(=O)c3ccc(Br)cc3)CC2)cc2oc3cc4c(c(O)c3c(=O)c2c1CC=C(C)C)C=CC(C)(C)O4`, for which the Activity in the series on Vero was above 90%.
As for `COc1c(OCc2cn(-c3cccc(F)c3F)nn2)cc2oc3cc4c(c(O)c3c(=O)c2c1CC=C(C)C)C=CC(C)(C)O4`, the Activity with Vero was above 90%.
In the case of `Oc1cc(O)c2c(c1)O[C@@H](c1ccc(O)c(O)c1)[C@@H](O)C2` [(+)-EPICATECHIN], the Activity is on record as 7.45 log10FFU/ml in the series with Chikungunya virus [10], above 90% in the series on Vero and around 7.4 log10FFU/ml in the series on Chikungunya virus [12]. The outcome in the series with Chikungunya virus [11] was Active. Moreover, in series [2], the CC50 came to 206 µM. The selectivity ratio at 24 h in series [3] worked out at 23.8. Also, in the series on Chikungunya virus [4], the IC50 stood at 8.65 µM.
In the case of `COc1c(OCC#Cc2ccccc2)cc2oc3cc4c(c(O)c3c(=O)c2c1CC=C(C)C)C=CC(C)(C)O4`, in the series with Vero, the Activity is on record as above 90%.
On the same count and under the same terms, in the case of `O[C@H]1[C@H](O)[C@@H](O)[C@H](O)[C@@H](O)[C@H]1O` [INOSITOL] it was above 90%.
For `COc1c(O)cc2oc3cc(O)c(CC=C(C)C)c(O)c3c(=O)c2c1CC=C(C)C` [MANGOSTIN], the CC50 in [2] came out at 15.4 µM. For the same molecule, the Activity in the series with Vero was above 90%; in the series on Chikungunya virus [8] it was 7.28 log10FFU/ml; with Chikungunya virus [5] it was 7.37 log10FFU/ml. The IC50 in the series on Chikungunya virus [4] worked out at 2.2 µM.
`COc1c(OCc2cn(-c3cccc(C)c3)nn2)cc2oc3cc4c(c(O)c3c(=O)c2c1CC=C(C)C)C=CC(C)(C)O4`: the Activity in the series on Vero is given as above 90%.
For `COc1c(OCc2cn(-c3ccc(F)c(Cl)c3)nn2)cc2oc3cc4c(c(O)c3c(=O)c2c1CC=C(C)C)C=CC(C)(C)O4`, the Activity in the series on Vero is above 90%.
Take `COc1c(OCC#Cc2ccc(Cl)cc2)cc2oc3cc4c(c(O)c3c(=O)c2c1CC=C(C)C)C=CC(C)(C)O4`: the Activity in the series on Vero is listed as above 90%.
Regarding `COc1c(OCC#Cc2ccc(I)cc2)cc2oc3cc4c(c(O)c3c(=O)c2c1CC=C(C)C)C=CC(C)(C)O4`, the Activity with Vero is above 90%.
On to `COc1c(O)cc2oc3cc(O)c4c(c3c(=O)c2c1CC=C(C)C)OC(C)(C)CC4`, for which the values for the Activity in the series with Chikungunya virus [10], in the series on Vero and in the series with Chikungunya virus [5] were 7.62 log10FFU/ml, above 90% and 7.39 log10FFU/ml, respectively. Also, the result in the series with Chikungunya virus [11] was Active. Also, the half-maximal cytotoxic concentration (CC50) in series [2] was determined as 119 µM. Besides, the selectivity ratio at 24 h in [3] worked out at 4.01. Besides, the IC50 in the series with Chikungunya virus [4] was found to be 29.7 µM.
